Columns and labels:
[1] = target: T1, glutathione-S-transferase (GST) tagged LXRbeta LBD (ligand binding domain) (Homo sapiens, UniProt P55055); assay: LanthaScreen TR-FRET Liver X Receptor Coactivator Assay, LXR beta-LBD; assay type: biochemical; conditions: for Emax: efficacy in relation to reference dual agonist T1317, read-out: LXR beta activity at max dose (%) (Emax); for EC50: potency (Inflection Point) of co-activator recruitment, TR-FRET, read-out: LXR beta IP
T1 construct: purchased Invitrogen pv4658.pps
T1 sequence (P55055 222-460 limits assumed): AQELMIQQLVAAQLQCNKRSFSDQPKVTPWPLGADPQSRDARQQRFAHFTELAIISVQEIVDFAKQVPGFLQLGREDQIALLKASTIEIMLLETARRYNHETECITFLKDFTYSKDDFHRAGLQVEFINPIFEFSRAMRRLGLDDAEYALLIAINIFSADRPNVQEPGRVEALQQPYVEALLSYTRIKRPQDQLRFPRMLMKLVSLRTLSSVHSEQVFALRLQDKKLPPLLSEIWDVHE
Experimental: (§1) While running the LanthaScreen™ TR-FRET Liver X Receptor Coactivator Assay, LXR alpha-LBD or LXR beta-LBD was added to ligand test compounds followed by addition of a mixture of a fluorescein-labelled coactivator peptide and terbium-conjugated anti-GST antibody. After an incubation period at room temperature, TR-FRET (time-resolved fluorescence resonance energy transfer) was measured using a filter-based instrument capable of TR-FRET, e.g. PerkinElmer Envision.

[2] = target: T2, glutathione-S-transferase (GST) tagged LXRalpha LBD (ligand binding domain) (Homo sapiens, UniProt Q13133); assay: LanthaScreen TR-FRET Liver X Receptor Coactivator Assay, LXR alpha-LBD; assay type: biochemical; conditions: for Emax: efficacy in relation to reference dual agonist T1317, read-out: LXR alpha activity at max dose (%) (Emax); for EC50 / LXR alpha IP (nM): potency (Inflection Point) of co-activator recruitment, TR-FRET; for EC50: read-out: LXR alpha IP
T2 construct: purchased Invitrogen pv4655
T2 sequence (Q13133 209-447 limits assumed): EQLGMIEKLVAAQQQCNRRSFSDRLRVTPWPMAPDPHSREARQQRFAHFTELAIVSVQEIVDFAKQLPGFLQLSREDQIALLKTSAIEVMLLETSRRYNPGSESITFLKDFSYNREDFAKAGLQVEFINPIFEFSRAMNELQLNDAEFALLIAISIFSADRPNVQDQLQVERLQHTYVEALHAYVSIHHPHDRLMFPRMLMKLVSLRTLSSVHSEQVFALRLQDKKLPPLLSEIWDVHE
Experimental: as §1

| SMILES | Emax [1] | EC50 [1] | Emax [2] | EC50 [2] | LXR alpha IP (nM) [2] |
| --- | --- | --- | --- | --- | --- |
| CN(C)C(=O)c1ccc(-c2cnc(N3CCN(C(=O)Cc4cn5ccsc5n4)CC3)c(C#N)c2)cc1Cl [Example 2-24, 2-chloro-4-{5-cyano-6-[4-(imidazo[2,1-b][1,3]thiazol-6-ylacetyl)piperazin-1-yl]pyridin-3-yl}-N,N-dimethylbenzamide] | 104% | 463 nM | 42% | 29600 nM |  |
| CCCC(O)(C(=O)N1CCN(c2ncc(-c3ccc(C(=O)N(C)C)c(Cl)c3)cc2C#N)CC1)C(F)(F)F (stereo not drawn) [Example 2-25, 2-chloro-4-(5-cyano-6-{4-[2-hydroxy-2-(trifluoromethyl)pentanoyl]piperazin-1-yl}pyridin-3-yl)-N,N-dimethylbenzamide] | 100% | 94 nM | 53% | 4150 nM |  |
| CN(C)C(=O)c1ccc(-c2cnc(N3CCN(C(=O)C4(c5ccccc5)CCCC4)CC3)c(C#N)c2)cc1Cl [Example 2-26, 2-chloro-4-(5-cyano-6-{4-[(1-phenylcyclopentyl)carbonyl]piperazin-1-yl}pyridin-3-yl)-N,N-dimethylbenzamide] | 84% | 43 nM | 25% | 1990 nM |  |
| CN(C)C(=O)c1ccc(-c2ccc(N3CCN(C(=O)[C@](O)(c4ccccc4)C(F)(F)F)CC3)cc2)cc1Cl [Example 2-27, 3-chloro-N,N-dimethyl-4′-{4-[(2R)-3,3,3-trifluoro-2-hydroxy-2-phenylpropanoyl]piperazin-1-yl}biphenyl-4-carboxamide] | 80% | 226 nM | 14% |  | No IP |
| CNC(=O)c1ccc(-c2cnc(N3CCN(C(=O)[C@](O)(c4ccccc4)C(F)(F)F)CC3)c(C#N)c2)cc1Cl [Example 2-28, 2-chloro-4-(5-cyano-6-{4-[(2R)-3,3,3-trifluoro-2-hydroxy-2-phenylpropanoyl]piperazin-1-yl}pyridin-3-yl)-N-methylbenzamide] | 98% | 12 nM | 30% | 1930 nM |  |
| CN(C)C(=O)c1ccc(-c2cnc(N3CCN(C(=O)C4(c5ccccc5F)CCCC4)CC3)c(C#N)c2)cc1Cl [Example 2-29, 2-chloro-4-[5-cyano-6-(4-{[1-(2-fluorophenyl)cyclopentyl]carbonyl}piperazin-1-yl)pyridin-3-yl]-N,N-dimethylbenzamide] | 93% | 15 nM | 57% | 4230 nM |  |
| CN(C)C(=O)c1ccc(-c2cnc(N3CCN(C(=O)C(O)(C(F)(F)F)C(F)(F)F)CC3)c(C#N)c2)cc1Cl [Example 2-30, 2-chloro-4-(5-cyano-6-{4-[3,3,3-trifluoro-2-hydroxy-2-(trifluoromethyl)propanoyl]piperazin-1-yl}pyridin-3-yl)-N,N-dimethylbenzamide] | 125% | 6 nM | 66% | 5290 nM |  |
| CN(C)C(=O)c1ccc(-c2cnc(N3CCN(C(=O)[C@@](O)(c4ccccc4)C(F)(F)F)CC3)c(C#N)c2)cc1Cl [Example 2-31, 2-chloro-4-(5-cyano-6-{4-[(2S)-3,3,3-trifluoro-2-hydroxy-2-phenylpropanoyl]piperazin-1-yl}pyridin-3-yl)-N,N-dimethylbenzamide] | 68% | 307 nM | 12% | 7290 nM |  |
| CN(C)C(=O)c1ccc(-c2cnc(N3CCN(C(=O)C(O)(c4ccccc4)C(F)(F)F)CC3)c(C#N)c2)cc1Cl (stereo not drawn) [Example 2-32, 2-chloro-4-{5-cyano-6-[4-(3,3,3-trifluoro-2-hydroxy-2-phenylpropanoyl)piperazin-1-yl]pyridin-3-yl}-N,N-dimethylbenzamide] | 98% | 4 nM | 37% | 3050 nM |  |
| CN(C)C(=O)c1ccc(-c2cnc(N3CCN(C(=O)C(O)(C4CCCCC4)C(F)(F)F)CC3)c(C#N)c2)cc1Cl (stereo not drawn) [Example 2-33, 2-chloro-4-{5-cyano-6-[4-(2-cyclohexyl-3,3,3-trifluoro-2-hydroxypropanoyl)piperazin-1-yl]pyridin-3-yl}-N,N-dimethylbenzamide] | 115% | 162 nM | 27% | 3290 nM |  |
| CN(C)C(=O)c1ccc(-c2cnc(N3CCN(C(=O)C4(c5ccc(Cl)cc5Cl)CC4)CC3)c(C#N)c2)cc1Cl [Example 2-34, 2-chloro-4-[5-cyano-6-(4-{[1-(2,4-dichlorophenyl)cyclopropyl]carbonyl}piperazin-1-yl)pyridin-3-yl]-N,N-dimethylbenzamide] | 88% | 25 nM | 49% | 12700 nM |  |
| CO[C@@](C(=O)N1CCN(c2ncc(-c3ccc(C(=O)N(C)C)c(Cl)c3)cc2C#N)CC1)(c1ccccc1)C(F)(F)F [Example 2-35, 2-chloro-4-(5-cyano-6-{4-[(2R)-3,3,3-trifluoro-2-methoxy-2-phenylpropanoyl]piperazin-1-yl}pyridin-3-yl)-N,N-dimethylbenzamide] | 70% | 75 nM | 62% | 54100 nM |  |
| CCCC(O)(C(=O)N1CCN(c2ncc(-c3ccc(C(=O)N(C)C)c(Cl)c3)cc2C#N)CC1)C(F)(F)C(F)(F)F (stereo not drawn) [Example 2-36, 2-chloro-4-(5-cyano-6-{4-[2-hydroxy-2-(pentafluoroethyl)pentanoyl]piperazin-1-yl}pyridin-3-yl)-N,N-dimethylbenzamide] | 81% | 205 nM | 36% | 5130 nM |  |
| CN(C)C(=O)c1ccc(-c2cnc(N3CCN(C(=O)C(O)(CCc4ccccc4)C(F)(F)F)CC3)c(C#N)c2)cc1Cl (stereo not drawn) [Example 2-37, 2-chloro-4-(5-cyano-6-{4-[2-hydroxy-4-phenyl-2-(trifluoromethyl)butanoyl]piperazin-1-yl}pyridin-3-yl)-N,N-dimethylbenzamide] | 58% | 735 nM | 55% | 97600 nM |  |
| CN(C)C(=O)c1ccc(-c2cnc(N3CCN(C(=O)C(O)(c4ccccc4Cl)C(F)(F)F)CC3)c(C#N)c2)cc1Cl (stereo not drawn) [Example 2-38, 2-chloro-4-(6-{4-[2-(2-chlorophenyl)-3,3,3-trifluoro-2-hydroxypropanoyl]piperazin-1-yl}-5-cyanopyridin-3-yl)-N,N-dimethylbenzamide] | 69% | 13 nM | 18% | 292 nM |  |

Now from value to molecule:

| Emax [1] | EC50 [1] | Emax [2] | EC50 [2] | LXR alpha IP (nM) [2] | SMILES |
| --- | --- | --- | --- | --- | --- |
| 119% | 12 nM | 60% | 2310 nM |  | CN(C)C(=O)c1ccc(-c2cnc(N3CCN(C(=O)OCc4c(Cl)cccc4Cl)CC3)c(C#N)c2)cc1Cl [Example 3-1, 2,6-dichlorobenzyl4-{5-[3-chloro-4-(dimethylcarbamoyl)phenyl]-3-cyanopyridin-2-yl}piperazine-1-carboxylate] |
| 41% | 1560 nM | 19% |  | No IP | CC(C)COC(=O)N1CCN(c2ncc(-c3ccc(C(=O)N(C)C)c(Cl)c3)cc2C#N)CC1 [Example 3-2, 2-methylpropyl 4-{5-[3-chloro-4-(dimethylcarbamoyl)phenyl]-3-cyanopyridin-2-yl}piperazine-1-carboxylate] |
| 62% | 217 nM | 42% | 19800 nM |  | CN(C)C(=O)c1ccc(-c2cnc(N3CCN(C(=O)OCc4cncs4)CC3)c(C#N)c2)cc1Cl [Example 3-3, 1,3-thiazol-5-ylmethyl 4-{5-[3-chloro-4-(dimethylcarbamoyl)phenyl]-3-cyanopyridin-2-yl}piperazine-1-carboxylate] |
| 86% | 87 nM | 122% | 2820 nM |  | Cc1ccccc1COC(=O)N1CCN(c2ncc(-c3ccc(C(=O)N(C)C)c(Cl)c3)cc2C#N)CC1 [Example 3-4, 2-methylbenzyl 4-{5-[3-chloro-4-(dimethylcarbamoyl)phenyl]-3-cyanopyridin-2-yl}piperazine-1-carboxylate] |
| 97% | 56 nM | 57% | 1340 nM |  | Cc1cccc(COC(=O)N2CCN(c3ncc(-c4ccc(C(=O)N(C)C)c(Cl)c4)cc3C#N)CC2)c1 [Example 3-5, 3-methylbenzyl 4-{5-[3-chloro-4-(dimethylcarbamoyl)phenyl]-3-cyanopyridin-2-yl}piperazine-1-carboxylate] |
| 92% | 21 nM | 50% | 6610 nM |  | CN(C)C(=O)c1ccc(-c2cnc(N3CCN(C(=O)OCc4ccccc4F)CC3)c(C#N)c2)cc1Cl [Example 3-6, 2-fluorobenzyl 4-{5-[3-chloro-4-(dimethylcarbamoyl)phenyl]-3-cyanopyridin-2-yl}piperazine-1-carboxylate] |

— patent US10239849B2 (Merck Sharp & Dohme Corp., priority 2015, dated 2019)
